Laboratory results: the kinase profiling compilation of Christmann-Franck et al. (2016)

Key:
Assay in all cases: KINOMEscan competition binding
Settings in all cases: compound 10.0 µM
ACVR1 (human) = ACVR1 (human) (UniProt Q04771)
ACVR2B (human) = ACVR2B (human) (UniProt Q13705)
CDK8 (human) = CDK8 (human) (UniProt P49336)
DCLK1 (human) = DCLK1 (human) (UniProt O15075)
DMPK (human) = DMPK (human) (UniProt Q09013)
EPHA4 (human) = EPHA4 (human) (UniProt P54764)
EPHA6 (human) = EPHA6 (human) (UniProt Q9UF33)
FER (human) = FER (human) (UniProt P16591)
FGFR1 (human) = FGFR1 (human) (UniProt P11362)
HIPK2 (human) = HIPK2 (human) (UniProt Q9H2X6)
IGF1R (human) = IGF1R (human) (UniProt P08069)
[1] = molecular target: JAK2 JH1 catalytic (human) (UniProt O60674)
[2] = tested on: KIT (human), P10721 [D816V]
MAP2K6 (human) = MAP2K6 (human) (UniProt P52564)
MAP3K1 (human) = MAP3K1 (human) (UniProt Q13233)
MAP4K1 (human) = MAP4K1 (human) (UniProt Q92918)
MARK3 (human) = MARK3 (human) (UniProt P27448)
MLTK (human) = MLTK (human) (UniProt Q9NYL2)
MYLK3 (human) = MYLK3 (human) (UniProt Q32MK0)
NEK7 (human) = NEK7 (human) (UniProt Q8TDX7)
PAK4 (human) = PAK4 (human) (UniProt O96013)
PAK6 (human) = PAK6 (human) (UniProt Q9NQU5)
PIK3C2B (human) = PIK3C2B (human) (UniProt O00750)
[3] = tested on: PIK3CA (human), P42336 [H1047Y]
[4] = tested on: PIK3CA (human), P42336 [Q546K]
PIK3CB (human) = PIK3CB (human) (UniProt P42338)
PLK4 (human) = PLK4 (human) (UniProt O00444)
RAF1 (human) = RAF1 (human) (UniProt P04049)
RIOK2 (human) = RIOK2 (human) (UniProt Q9BVS4)
RIPK2 (human) = RIPK2 (human) (UniProt O43353)
RPS6KA4 KD1 (human) = RPS6KA4 KD1 (human) (UniProt O75676)
SIK3 (human) = SIK3 (human) (UniProt Q9Y2K2)
STK17B (human) = STK17B (human) (UniProt O94768)
STK24 (human) = STK24 (human) (UniProt Q9Y6E0)
STK4 (human) = STK4 (human) (UniProt Q13043)
TXK (human) = TXK (human) (UniProt P42681)
TYRO3 (human) = TYRO3 (human) (UniProt Q06418)
YSK4 (human) = YSK4 (human) (UniProt Q56UN5)
[5] = tested on: PIK3CA (human), P42336 [E545A]
Sequence of PIK3CA (human), P42336 [E545A] (P42336 whole entry E545A, looked up): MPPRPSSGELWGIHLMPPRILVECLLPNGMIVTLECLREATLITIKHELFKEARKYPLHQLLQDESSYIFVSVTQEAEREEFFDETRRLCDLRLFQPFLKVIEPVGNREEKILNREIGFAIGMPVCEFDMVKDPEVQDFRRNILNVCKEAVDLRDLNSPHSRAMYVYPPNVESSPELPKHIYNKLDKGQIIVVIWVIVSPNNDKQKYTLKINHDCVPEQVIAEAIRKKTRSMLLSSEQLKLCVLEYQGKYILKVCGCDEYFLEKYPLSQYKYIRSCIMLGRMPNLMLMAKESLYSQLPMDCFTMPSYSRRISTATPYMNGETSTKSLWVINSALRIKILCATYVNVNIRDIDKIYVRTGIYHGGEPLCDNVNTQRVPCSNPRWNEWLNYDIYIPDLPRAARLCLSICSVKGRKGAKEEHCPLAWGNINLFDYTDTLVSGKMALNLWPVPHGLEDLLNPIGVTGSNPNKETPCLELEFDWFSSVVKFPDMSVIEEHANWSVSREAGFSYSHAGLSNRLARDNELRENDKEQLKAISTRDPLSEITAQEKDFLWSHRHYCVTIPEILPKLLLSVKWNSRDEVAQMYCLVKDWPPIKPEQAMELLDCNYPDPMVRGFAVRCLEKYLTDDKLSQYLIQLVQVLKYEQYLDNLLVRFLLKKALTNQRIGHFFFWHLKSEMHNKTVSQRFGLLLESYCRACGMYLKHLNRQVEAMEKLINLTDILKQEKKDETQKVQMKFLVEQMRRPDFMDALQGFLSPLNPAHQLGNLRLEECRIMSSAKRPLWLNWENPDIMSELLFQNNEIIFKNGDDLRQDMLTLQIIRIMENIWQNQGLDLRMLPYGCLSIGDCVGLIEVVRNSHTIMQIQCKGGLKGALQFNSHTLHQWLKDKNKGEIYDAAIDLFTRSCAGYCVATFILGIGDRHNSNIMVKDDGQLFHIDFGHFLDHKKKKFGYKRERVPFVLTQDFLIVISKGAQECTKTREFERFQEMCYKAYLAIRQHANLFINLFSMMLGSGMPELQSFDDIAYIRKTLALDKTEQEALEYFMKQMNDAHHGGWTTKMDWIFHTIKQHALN

Sequence of KIT (human), P10721 [D816V] (P10721 whole entry D816V, looked up): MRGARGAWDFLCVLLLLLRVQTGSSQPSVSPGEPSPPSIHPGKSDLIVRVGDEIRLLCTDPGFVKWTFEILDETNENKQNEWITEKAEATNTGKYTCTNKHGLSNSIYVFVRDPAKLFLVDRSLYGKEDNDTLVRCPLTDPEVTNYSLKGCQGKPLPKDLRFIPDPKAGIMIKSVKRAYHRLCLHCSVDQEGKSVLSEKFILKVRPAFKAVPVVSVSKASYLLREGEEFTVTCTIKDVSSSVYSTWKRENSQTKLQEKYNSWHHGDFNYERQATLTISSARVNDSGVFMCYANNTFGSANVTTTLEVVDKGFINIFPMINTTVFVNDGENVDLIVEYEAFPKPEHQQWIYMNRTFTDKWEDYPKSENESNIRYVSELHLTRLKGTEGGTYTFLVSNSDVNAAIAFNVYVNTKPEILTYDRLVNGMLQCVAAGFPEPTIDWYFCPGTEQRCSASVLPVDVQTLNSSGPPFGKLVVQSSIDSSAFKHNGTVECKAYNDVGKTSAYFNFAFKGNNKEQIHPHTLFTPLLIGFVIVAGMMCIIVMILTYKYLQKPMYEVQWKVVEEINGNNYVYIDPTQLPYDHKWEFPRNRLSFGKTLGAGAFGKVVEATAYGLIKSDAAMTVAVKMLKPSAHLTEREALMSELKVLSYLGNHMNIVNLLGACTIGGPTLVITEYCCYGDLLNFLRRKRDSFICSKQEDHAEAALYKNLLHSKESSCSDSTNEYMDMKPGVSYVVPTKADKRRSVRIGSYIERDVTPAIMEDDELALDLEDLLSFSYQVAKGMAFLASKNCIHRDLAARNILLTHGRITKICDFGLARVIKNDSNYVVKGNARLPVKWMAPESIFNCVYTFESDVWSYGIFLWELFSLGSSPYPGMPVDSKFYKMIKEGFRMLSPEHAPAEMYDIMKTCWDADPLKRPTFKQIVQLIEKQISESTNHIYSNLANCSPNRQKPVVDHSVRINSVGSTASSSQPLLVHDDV
Sequence of TXK (human) (P42681 whole entry, looked up): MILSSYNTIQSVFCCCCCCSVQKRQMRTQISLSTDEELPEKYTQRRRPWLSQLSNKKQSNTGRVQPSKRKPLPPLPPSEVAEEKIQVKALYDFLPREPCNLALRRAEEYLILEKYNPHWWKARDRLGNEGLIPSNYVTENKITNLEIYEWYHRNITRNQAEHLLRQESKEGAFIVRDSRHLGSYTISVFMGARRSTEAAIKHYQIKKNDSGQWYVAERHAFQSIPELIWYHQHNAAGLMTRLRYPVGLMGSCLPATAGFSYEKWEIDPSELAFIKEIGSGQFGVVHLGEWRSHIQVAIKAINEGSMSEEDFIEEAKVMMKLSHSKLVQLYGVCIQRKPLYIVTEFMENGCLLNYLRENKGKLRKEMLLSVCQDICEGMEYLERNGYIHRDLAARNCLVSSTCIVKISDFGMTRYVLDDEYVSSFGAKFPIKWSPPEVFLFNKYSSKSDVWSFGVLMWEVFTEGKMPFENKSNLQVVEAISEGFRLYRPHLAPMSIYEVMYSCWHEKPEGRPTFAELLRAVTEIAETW
Sequence of MYLK3 (human) (Q32MK0 whole entry, looked up): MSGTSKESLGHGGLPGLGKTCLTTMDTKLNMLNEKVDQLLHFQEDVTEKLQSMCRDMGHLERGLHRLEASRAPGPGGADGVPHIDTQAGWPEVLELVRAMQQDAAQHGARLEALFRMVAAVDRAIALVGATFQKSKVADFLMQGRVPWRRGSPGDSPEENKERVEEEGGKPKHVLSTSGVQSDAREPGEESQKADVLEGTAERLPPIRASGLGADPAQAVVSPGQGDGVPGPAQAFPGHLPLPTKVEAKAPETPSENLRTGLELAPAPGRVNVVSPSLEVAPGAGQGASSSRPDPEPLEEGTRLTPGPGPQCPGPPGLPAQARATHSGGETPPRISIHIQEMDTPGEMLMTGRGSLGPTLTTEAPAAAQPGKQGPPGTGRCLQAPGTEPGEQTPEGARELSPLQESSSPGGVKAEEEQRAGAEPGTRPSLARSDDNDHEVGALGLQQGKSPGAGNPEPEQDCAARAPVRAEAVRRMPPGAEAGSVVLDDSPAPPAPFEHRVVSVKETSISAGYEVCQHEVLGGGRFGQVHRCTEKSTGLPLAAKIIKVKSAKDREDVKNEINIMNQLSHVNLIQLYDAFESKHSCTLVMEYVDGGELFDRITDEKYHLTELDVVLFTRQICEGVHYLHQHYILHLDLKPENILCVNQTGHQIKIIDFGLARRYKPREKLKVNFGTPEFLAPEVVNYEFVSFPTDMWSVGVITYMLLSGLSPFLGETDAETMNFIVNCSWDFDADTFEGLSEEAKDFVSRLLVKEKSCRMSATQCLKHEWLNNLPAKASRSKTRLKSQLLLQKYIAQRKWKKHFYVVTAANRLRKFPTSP
Sequence of PIK3CA (human), P42336 [Q546K] (P42336 whole entry Q546K, looked up): as the sequence (P42336 whole entry E545A, looked up) above, with A545E, Q546K counted along it
Sequence of PLK4 (human) (O00444 whole entry, looked up): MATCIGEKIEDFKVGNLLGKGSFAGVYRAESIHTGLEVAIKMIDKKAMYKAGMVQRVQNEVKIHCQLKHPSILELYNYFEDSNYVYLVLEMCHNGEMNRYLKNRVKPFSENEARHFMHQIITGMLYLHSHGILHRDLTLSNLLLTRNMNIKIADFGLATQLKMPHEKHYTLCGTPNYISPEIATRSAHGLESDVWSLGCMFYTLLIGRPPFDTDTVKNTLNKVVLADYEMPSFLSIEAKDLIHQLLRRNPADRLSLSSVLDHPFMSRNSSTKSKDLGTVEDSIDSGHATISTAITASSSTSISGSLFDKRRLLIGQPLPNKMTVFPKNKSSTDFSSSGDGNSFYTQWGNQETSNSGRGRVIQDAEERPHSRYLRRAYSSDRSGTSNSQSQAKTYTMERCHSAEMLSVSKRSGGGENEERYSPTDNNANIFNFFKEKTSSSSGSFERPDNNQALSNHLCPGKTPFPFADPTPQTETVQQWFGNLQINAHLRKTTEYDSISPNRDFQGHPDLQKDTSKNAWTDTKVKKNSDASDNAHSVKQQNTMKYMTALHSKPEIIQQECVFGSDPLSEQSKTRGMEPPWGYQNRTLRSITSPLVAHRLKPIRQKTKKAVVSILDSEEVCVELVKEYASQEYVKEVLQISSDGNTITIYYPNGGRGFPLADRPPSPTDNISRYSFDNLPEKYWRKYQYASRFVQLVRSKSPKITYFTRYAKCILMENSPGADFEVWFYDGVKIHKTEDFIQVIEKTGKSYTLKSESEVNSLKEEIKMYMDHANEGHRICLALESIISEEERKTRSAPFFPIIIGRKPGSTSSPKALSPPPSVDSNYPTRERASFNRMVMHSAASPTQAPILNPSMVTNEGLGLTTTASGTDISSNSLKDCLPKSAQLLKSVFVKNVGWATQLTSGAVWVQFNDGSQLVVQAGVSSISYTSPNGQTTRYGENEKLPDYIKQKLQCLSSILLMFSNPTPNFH
Sequence of PAK4 (human) (O96013 whole entry, looked up): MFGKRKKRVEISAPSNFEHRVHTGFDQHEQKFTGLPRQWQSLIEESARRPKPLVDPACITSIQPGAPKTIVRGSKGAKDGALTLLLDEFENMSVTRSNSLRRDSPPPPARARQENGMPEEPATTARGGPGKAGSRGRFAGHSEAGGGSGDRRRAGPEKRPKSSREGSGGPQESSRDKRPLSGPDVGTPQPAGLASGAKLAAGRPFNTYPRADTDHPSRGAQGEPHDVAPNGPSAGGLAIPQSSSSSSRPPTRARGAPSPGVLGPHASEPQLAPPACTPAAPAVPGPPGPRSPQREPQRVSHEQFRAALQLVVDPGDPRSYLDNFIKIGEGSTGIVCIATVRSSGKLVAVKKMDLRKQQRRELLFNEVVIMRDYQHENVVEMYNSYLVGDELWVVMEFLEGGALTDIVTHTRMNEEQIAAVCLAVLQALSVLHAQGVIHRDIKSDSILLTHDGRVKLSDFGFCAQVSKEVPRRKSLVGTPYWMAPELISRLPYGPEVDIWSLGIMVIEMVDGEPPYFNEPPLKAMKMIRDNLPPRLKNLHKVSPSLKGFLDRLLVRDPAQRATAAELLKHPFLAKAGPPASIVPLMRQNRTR
Sequence of PIK3CA (human), P42336 [H1047Y] (P42336 whole entry H1047Y, looked up): as the sequence (P42336 whole entry E545A, looked up) above, with A545E, H1047Y counted along it

Row | Compound | kinase still bound, per cent of control (ACVR1 (human)) [%] | kinase still bound, per cent of control (ACVR2B (human)) [%] | kinase still bound, per cent of control (CDK8 (human)) [%] | kinase still bound, per cent of control (DCLK1 (human)) [%] | kinase still bound, per cent of control (DMPK (human)) [%] | kinase still bound, per cent of control (EPHA4 (human)) [%] | kinase still bound, per cent of control (EPHA6 (human)) [%] | kinase still bound, per cent of control (FER (human)) [%] | kinase still bound, per cent of control (FGFR1 (human)) [%] | kinase still bound, per cent of control (HIPK2 (human)) [%] | kinase still bound, per cent of control (IGF1R (human)) [%] | kinase still bound, per cent of control [1] [%] | kinase still bound, per cent of control [2] [%] | kinase still bound, per cent of control (MAP2K6 (human)) [%] | kinase still bound, per cent of control (MAP3K1 (human)) [%] | kinase still bound, per cent of control (MAP4K1 (human)) [%] | kinase still bound, per cent of control (MARK3 (human)) [%] | kinase still bound, per cent of control (MLTK (human)) [%] | kinase still bound, per cent of control (MYLK3 (human)) [%] | kinase still bound, per cent of control (NEK7 (human)) [%] | other results
1 | Cn1c(=O)n(-c2ccc(C(C)(C)C#N)cc2)c2c3cc(-c4cnc5ccccc5c4)ccc3ncc21 | 100 | 100 | 100 | 100 | 100 | 100 | 100 | 100 | 100 | 100 | 100 | 20 | 100 | 100 | 100 | 100 | 100 | 100 | 100 | 100 | kinase still bound, per cent of control (PAK4 (human)): 100%; kinase still bound, per cent of control (PAK6 (human)): 100%; kinase still bound, per cent of control (PIK3C2B (human)): 2.8%; kinase still bound, per cent of control [3]: 6.2%; kinase still bound, per cent of control [4]: 3.8%; kinase still bound, per cent of control (PIK3CB (human)): 22%; kinase still bound, per cent of control (PLK4 (human)): 100%; kinase still bound, per cent of control (RAF1 (human)): 100%; kinase still bound, per cent of control (RIOK2 (human)): 100%; kinase still bound, per cent of control (RIPK2 (human)): 100%; kinase still bound, per cent of control (RPS6KA4 KD1 (human)): 100%; kinase still bound, per cent of control (SIK3 (human)): 100%; kinase still bound, per cent of control (STK17B (human)): 100%; kinase still bound, per cent of control (STK24 (human)): 100%; kinase still bound, per cent of control (STK4 (human)): 100%; kinase still bound, per cent of control (TXK (human)): 100%; kinase still bound, per cent of control (TYRO3 (human)): 100%; kinase still bound, per cent of control (YSK4 (human)): 29%
2 | OCCCNc1cc(-c2ccnc(Nc3cccc(Cl)c3)n2)ccn1 | 100 | 100 | 100 | 100 | 100 | 100 | 100 | 100 | 100 | 15 | 100 | 100 | 100 | 100 | 100 | 100 | 100 | 100 | 100 | 100 | kinase still bound, per cent of control (PAK4 (human)): 100%; kinase still bound, per cent of control (PAK6 (human)): 100%; kinase still bound, per cent of control (PIK3C2B (human)): 100%; kinase still bound, per cent of control [5]: 100%; kinase still bound, per cent of control [3]: 100%; kinase still bound, per cent of control [4]: 100%; kinase still bound, per cent of control (PIK3CB (human)): 100%; kinase still bound, per cent of control (PLK4 (human)): 100%; kinase still bound, per cent of control (RAF1 (human)): 100%; kinase still bound, per cent of control (RIOK2 (human)): 100%; kinase still bound, per cent of control (RIPK2 (human)): 100%; kinase still bound, per cent of control (RPS6KA4 KD1 (human)): 100%; kinase still bound, per cent of control (SIK3 (human)): 100%; kinase still bound, per cent of control (STK17B (human)): 100%; kinase still bound, per cent of control (STK24 (human)): 100%; kinase still bound, per cent of control (STK4 (human)): 100%; kinase still bound, per cent of control (TXK (human)): 100%; kinase still bound, per cent of control (TYRO3 (human)): 100%; kinase still bound, per cent of control (YSK4 (human)): 100%
3 | COc1cc(C(=O)NC2CCN(C)CC2)ccc1Nc1ncc2c(n1)N(C1CCCC1)CCC(=O)N2C(C)C | 100 | 100 | 100 | 100 | 100 | 100 | 100 | 100 | 100 | 100 | 100 | 100 | 100 | 100 | 100 | 100 | 100 | 100 | 100 | 100 | kinase still bound, per cent of control (PAK4 (human)): 100%; kinase still bound, per cent of control (PAK6 (human)): 100%; kinase still bound, per cent of control (PIK3C2B (human)): 100%; kinase still bound, per cent of control [5]: 100%; kinase still bound, per cent of control [3]: 100%; kinase still bound, per cent of control [4]: 100%; kinase still bound, per cent of control (PIK3CB (human)): 100%; kinase still bound, per cent of control (PLK4 (human)): 100%; kinase still bound, per cent of control (RAF1 (human)): 100%; kinase still bound, per cent of control (RIOK2 (human)): 100%; kinase still bound, per cent of control (RIPK2 (human)): 100%; kinase still bound, per cent of control (RPS6KA4 KD1 (human)): 100%; kinase still bound, per cent of control (SIK3 (human)): 100%; kinase still bound, per cent of control (STK17B (human)): 100%; kinase still bound, per cent of control (STK24 (human)): 100%; kinase still bound, per cent of control (STK4 (human)): 100%; kinase still bound, per cent of control (TXK (human)): 100%; kinase still bound, per cent of control (TYRO3 (human)): 100%; kinase still bound, per cent of control (YSK4 (human)): 100%
